Like-named read-outs stand apart in the source and are kept apart here.
How the values were obtained:
[1] = biological target: T1, Human serum albumin (HSA) (Homo sapiens, UniProt P02768); assay: Human serum albumin binding via high performance affinity chromatography (HPAC); type: in vitro ADME; details: Chiralpak HSA column, n = 1
T1 construct: purchased Daicel, Tokyo, Japan H13H-2433
Protocol: Human serum albumin (HSA) binding was determined via high performance affinity chromatography (HPAC), according to previously published protocols. Human serum albumin interaction was calculated according to the retention time (n = 1) of our compounds on a Chiralpak HSA column in dependence of nine reference compounds with known HSA interaction.
Human serum albumin binding was determined via high performance affinity chromatography. Therefore, a Chiralpak HSA column (50 × 3 mm, 5 µm, H13H-2433, Daicel, Tokyo, Japan) was used at a constant flow rate of 0.5 ml/min at room temperature. Mobile phase A consisted of a freshly prepared aqueous solution of NH4OAc (pH = 6.9, 50 mM) and mobile phase B of isopropanol. Calibration of the column was performed daily prior to experiments, by determining the retention times of nine reference substances displaying a HSA binding from 13 to 99%. HPLC gradient for all compounds tested was 100% A (0 to 3 min), followed by 80% A (3 to 40 min). All substances tested, were dissolved in a mixture of A/B (0.5 mg/mL, 1:1, v/v). OriginPro 2016G software (Northampton, United States) was used for non-linear regression and data evaluation.

[2] = system: AR42J tumor-bearing CB17-SCID mice; assay: Biodistribution at 24 h p.i. in AR42J tumor-bearing CB17-SCID mice; type: in vivo; details: for reduction of kidney accumulation and retention compared to [177Lu]Lu-DOTA-rhCCK-18: p < 0.0001
Protocol: (§1) Animal experiments were carried out according to the general animal welfare regulations in Germany (German animal protection act, in the edition of the announcement, dated 18 May 2006, as amended by Article 280 of 19 June 2020, approval no. ROB-55.2–1-2532.Vet_02-18–109 by the General Administration of Upper Bavaria) and the institutional guidelines for the care and use of animals. Therefore, CB17-SCID mice of both genders and aged 2–4 months (Charles River Laboratories International Inc., Sulzfeld, Germany) were used. After arrival at the in-house facilities, mice were allowed to acclimate for a minimum of one week before inoculation of AR42J cells. AR42J cells (6.0 × 10^6 cells per 200 μL) were suspended in a mixture (v/v = 1/1) of nutrient medium and Cultrex® Basement Membrane Matrix Type 3 (Trevigen Inc., Gaithersburg, MD, USA) and inoculated subcutaneously onto the right shoulder of CB17-SCID mice according to a previously reported protocol. Animals were excluded from the study when reaching one of the following endpoints: a weight loss higher than 20%, a tumor size above 1500 mm^3, an ulceration of the tumor, respiratory distress or change of behavior [8]. None of these criteria applied to any animal from the experiment. Neither randomization nor blinding was applied in the allocation of the experiments. Health status of the animals is specific pathogen free according to Federation of European Laboratory Animal Science Associations recommendation.
(§2) Biodistribution studies (n = 4) and µSPECT/CT imaging (n = 1) at 24 h p.i. were carried out as previously published. For all in vivo experiments, approximately 2–3 MBq (100 pmol) of the respective ^177Lu-labeled peptide were administered.
(§3) Table S2. Biodistribution data of [^177Lu]Lu-DOTA-rhCCK-70 and [^177Lu]Lu-DOTA-rhCCK-91 in selected organs at 24 h p.i. in AR42J tumor-bearing CB17-SCID mice (100 pmol each). Data are expressed as %ID/g, mean ± SD.
(§4) Table S3. Tumor-to-background ratios of [^177Lu]Lu-DOTA-rhCCK-70 and [^177Lu]Lu-DOTA-rhCCK-91 in selected organs at 24 h p.i. in AR42J tumor-bearing CB17-SCID mice (100 pmol each). Data are expressed as %ID/g, mean ± SD.

[3] = as above; type: in vivo; details: mouse, 100 pmol, 100 pmol; for tissue to tissue ratio at 24 h: both sexes, CB17-SCID, total radioactivity
Protocol: as §1, §2, §3, §4

[4] = Lipophilicity, n-octanol/PBS distribution coefficient logD7.4; type: physicochemical; details: 177Lu-labeled peptide; n-octanol/PBS (1/1), n ≥ 5
Protocol: For determination of lipophilicity, the respective ^177Lu-Labeled peptide precursor (~ 1 MBq, 10 µL in 0.04 M HCl) was added to a solution of n-octanol/PBS (1/1, v/v, 1 mL) and vigourously mixed for 3 min at room temperature (n ≥ 5). Afterwards both phases were seperated using a Biofuge 15 centrifuge (Heraus Sepatech GmbH, Osterode, Germany) at 9,000 rpm for 5 min. 200 µL aliquots of both layers were collected separately, measured in a γ-counter (Perkin Elmer, Waltham, MA, USA) and the logD7.4 value was obtained.

[5] = tumor/adrenal, n=4, Table S3, read-out: Tumor-to-background ratio, Adrenal
[6] = tumor/blood, n=4, Table S3, read-out: Tumor-to-background ratio, Blood
[7] = tumor/bone, n=4, Table S3, read-out: Tumor-to-background ratio, Bone
[8] = tumor/heart, n=4, Table S3, read-out: Tumor-to-background ratio, Heart
[9] = tumor/intestine, n=4, Table S3, read-out: Tumor-to-background ratio, Intestine
[10] = tumor/kidney, n=4, Table S3, read-out: Tumor-to-background ratio, Kidney
[11] = tumor/liver, n=4, Table S3, read-out: Tumor-to-background ratio, Liver
[12] = tumor/lung, n=4, Table S3, read-out: Tumor-to-background ratio, Lung
[13] = tumor/muscle, n=4, Table S3, read-out: Tumor-to-background ratio, Muscle
[14] = tumor/pancreas, n=4, Table S3, read-out: Tumor-to-background ratio, Pancreas
[15] = tumor/spleen, n=4, Table S3, read-out: Tumor-to-background ratio, Spleen
[16] = tumor/stomach, n=4, Table S3, read-out: Tumor-to-background ratio, Stomach
[17] = adrenal, n=4, mean ± SD, read-out: Biodistribution, Adrenal
[18] = blood, n=4, mean ± SD, read-out: Biodistribution, Blood
[19] = bone, n=4, mean ± SD, read-out: Biodistribution, Bone
[20] = heart, n=4, mean ± SD, read-out: Biodistribution, Heart
[21] = intestine, n=4, mean ± SD, read-out: Biodistribution, Intestine
[22] = kidney, n=4, mean ± SD, read-out: Biodistribution, Kidney
[23] = liver, n=4, mean ± SD, read-out: Biodistribution, Liver
[24] = lung, n=4, mean ± SD, read-out: Biodistribution, Lung
[25] = muscle, n=4, mean ± SD, read-out: Biodistribution, Muscle
[26] = pancreas, n=4, mean ± SD, read-out: Biodistribution, Pancreas
[27] = spleen, n=4, mean ± SD, read-out: Biodistribution, Spleen
[28] = stomach, n=4, mean ± SD, read-out: Biodistribution, Stomach
[29] = tumor (AR42J xenograft), n=4, mean ± SD, read-out: Biodistribution, Tumor (AR42J xenograft)

T1 sequence (P02768 25-609): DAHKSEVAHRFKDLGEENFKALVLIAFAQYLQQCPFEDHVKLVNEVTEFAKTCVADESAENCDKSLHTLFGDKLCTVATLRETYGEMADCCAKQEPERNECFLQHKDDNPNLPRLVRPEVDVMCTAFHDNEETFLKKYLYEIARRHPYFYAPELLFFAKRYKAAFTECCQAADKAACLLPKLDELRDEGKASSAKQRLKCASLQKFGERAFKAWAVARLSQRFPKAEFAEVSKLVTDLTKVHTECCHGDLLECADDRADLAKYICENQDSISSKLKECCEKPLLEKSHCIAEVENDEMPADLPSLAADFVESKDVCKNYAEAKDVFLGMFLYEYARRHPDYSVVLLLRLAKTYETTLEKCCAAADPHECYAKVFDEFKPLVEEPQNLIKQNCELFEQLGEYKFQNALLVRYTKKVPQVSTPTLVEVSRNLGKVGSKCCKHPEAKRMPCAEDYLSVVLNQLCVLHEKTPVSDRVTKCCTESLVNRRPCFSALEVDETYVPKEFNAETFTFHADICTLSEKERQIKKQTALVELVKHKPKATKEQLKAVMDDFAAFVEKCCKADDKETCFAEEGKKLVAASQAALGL

| Structure (SMILES) | HSA binding [1] | decrease of activity levels in the tumor compared to [177Lu]Lu-DOTA-rhCCK-18 [2] | Biodistribution, Kidney ([2]; 100 pmol, n=4, mean ± SD) | Biodistribution, Liver ([2]; 100 pmol, n=4, mean ± SD) | Biodistribution, Spleen ([2]; 100 pmol, n=4, mean ± SD) | Biodistribution, Stomach ([2]; 100 pmol, n=4, mean ± SD) | reduction of kidney accumulation and retention compared to [177Lu]Lu-DOTA-rhCCK-18 [2] | tissue to tissue ratio at 24 h [3, 5] | tissue to tissue ratio at 24 h [3, 6] | tissue to tissue ratio at 24 h [3, 7] | tissue to tissue ratio at 24 h [3, 8] | tissue to tissue ratio at 24 h [3, 9] | tissue to tissue ratio at 24 h [3, 10] | tissue to tissue ratio at 24 h [3, 11] | tissue to tissue ratio at 24 h [3, 12] | tissue to tissue ratio at 24 h [3, 13] | tissue to tissue ratio at 24 h [3, 14] | tissue to tissue ratio at 24 h [3, 15] | tissue to tissue ratio at 24 h [3, 16] | tissue uptake at 24 h [3, 17] | also measured |
| --- | --- | --- | --- | --- | --- | --- | --- | --- | --- | --- | --- | --- | --- | --- | --- | --- | --- | --- | --- | --- | --- |
| CCCC[C@@H](C(=O)N[C@@H](CC(=O)O)C(=O)N[C@@H](Cc1cccc2ccccc12)C(N)=O)N(C)C(=O)[C@H](Cc1c[nH]c2ccccc12)NC(=O)CCOCCOCCOCCOCCNC(=O)CC[C@@H](NC(=O)CCOCCOCCOCCOCCOCCOCCOCCOCCNC(=O)CC[C@@H](NC(=O)[C@@H](CNC(=O)c1ccc([Si](F)(C(C)(C)C)C(C)(C)C)cc1)NC(=O)CN1CCN(CC(=O)O)CCN(CC(=O)O)CCN(CC(=O)O)CC1)C(=O)O)C(=O)O [[^nat/177Lu]Lu-DOTA-rhCCK-70, DOTA-D-Dap(p-SiFA)-D-γ-Glu-(PEG)7-D-γ-Glu-(PEG)3-Trp-(N-Me)Nle-Asp-1-Nal-NH2, metal not drawn] | 89.3% | 2 fold | 8.37 ± 0.78 %ID/g | 3.48 ± 1.66 %ID/g | 1.92 ± 0.60 %ID/g | 6.21 ± 0.85 %ID/g | 16 fold | 20.5 ± 8.5 | 143 ± 49 | 9.48 ± 8.05 | 55.4 ± 13.4 | 27.4 ± 7.7 | 1.44 ± 0.12 | 4.26 ± 1.7 | 33.4 ± 8.53 | 276 ± 189 | 55.2 ± 19.6 | 6.95 ± 2.17 | 1.97 ± 0.24 | 0.55 ± 0.46 %ID/g | tumor-to-kidney ratio [2]: 1.45 ± 0.12; tissue to tissue ratio at 24 h ([3]; tumor/kidney, read-out: tumor-to-kidney ratio): 1.4 ± 0.1; tissue to tissue ratio at 24 h ([3]; tumor/stomach, read-out: tumor-to-stomach ratio): 2 ± 0.2; tissue uptake at 24 h [3, 18]: 0.1 ± 0.04 %ID/g; tissue uptake at 24 h ([3]; bone, depending on 177Lu-batch, read-out: activity levels in the bone, range observed (correlating with free lutetium-177)): 0.5 to 4.3 %ID/g; tissue uptake at 24 h [3, 19]: 2.4 ± 1.5 %ID/g; tissue uptake at 24 h [3, 20]: 0.23 ± 0.05 %ID/g; tissue uptake at 24 h [3, 21]: 0.48 ± 0.13 %ID/g; tissue uptake at 24 h [3, 22]: 8.4 ± 0.8 %ID/g; tissue uptake at 24 h [3, 23]: 3.5 ± 1.7 %ID/g; tissue uptake at 24 h [3, 24]: 0.39 ± 0.12 %ID/g; tissue uptake at 24 h [3, 25]: 0.06 ± 0.03 %ID/g; tissue uptake at 24 h [3, 26]: 0.24 ± 0.08 %ID/g; tissue uptake at 24 h [3, 27]: 1.9 ± 0.6 %ID/g; tissue uptake at 24 h [3, 28]: 6.2 ± 0.9 %ID/g; tissue uptake at 24 h [3, 29]: 12 ± 0.8 %ID/g; logD [4]: -1.67 |
| CCCC[C@@H](C(=O)N[C@@H](CC(=O)O)C(=O)N[C@@H](Cc1cccc2ccccc12)C(N)=O)N(C)C(=O)[C@H](Cc1c[nH]c2ccccc12)NC(=O)CCOCCOCCOCCOCCNC(=O)CC[C@@H](NC(=O)CCOCCOCCOCCOCCOCCNC(=O)CC[C@@H](NC(=O)[C@@H](CNC(=O)C[N+](C)(C)Cc1ccc([Si](F)(C(C)(C)C)C(C)(C)C)cc1)NC(=O)CN1CCN(CC(=O)O)CCN(CC(=O)O)CCN(CC(=O)O)CC1)C(=O)O)C(=O)O [[^nat/177Lu]Lu-DOTA-rhCCK-91, DOTA-D-Dap(SiFAlin)-D-γ-Glu-(PEG)4-D-γ-Glu-(PEG)3-Trp-(N-Me)Nle-Asp-1-Nal-NH2, metal not drawn] | 90.0% | three | 6.58 ± 0.53 %ID/g | 1.96 ± 0.08 %ID/g | 1.04 ± 0.26 %ID/g | 3.99 ± 1.16 %ID/g | 20 fold | 17.3 ± 1.9 | 185 ± 32 | 11.8 ± 0.72 | 25.3 ± 5.2 | 12.3 ± 5.1 | 1.14 ± 0.12 | 3.8 ± 0.37 | 29.3 ± 4.2 | 147 ± 65 | 8.98 ± 2.1 | 7.35 ± 0.75 | 1.95 ± 0.27 | 0.44 ± 0.09 %ID/g | Biodistribution, Tumor (AR42J xenograft) ([2]; 100 pmol, n=4, mean ± SD): 7.47 ± 1.01 %ID/g; tissue uptake at 24 h [3, 18]: 0.04 ± 0.01 %ID/g; tissue uptake at 24 h [3, 19]: 0.64 ± 0.12 %ID/g; tissue uptake at 24 h [3, 20]: 0.31 ± 0.07 %ID/g; tissue uptake at 24 h [3, 21]: 0.68 ± 0.16 %ID/g; tissue uptake at 24 h [3, 22]: 6.6 ± 0.5 %ID/g; tissue uptake at 24 h [3, 23]: 2 ± 0.1 %ID/g; tissue uptake at 24 h [3, 24]: 0.26 ± 0.05 %ID/g; tissue uptake at 24 h [3, 25]: 0.06 ± 0.01 %ID/g; tissue uptake at 24 h [3, 26]: 0.9 ± 0.32 %ID/g; tissue uptake at 24 h [3, 27]: 1 ± 0.3 %ID/g; tissue uptake at 24 h [3, 28]: 4 ± 1.2 %ID/g; tissue uptake at 24 h [3, 29]: 7.5 ± 1 %ID/g; logD [4]: -1.66 ± 0.08 |

— PMC10907560, “Significant reduction of activity retention in the kidneys via optimized linker sequences in radiohybrid-based minigastrin analogs” (EJNMMI Research, 2024)
